Results taken from US20070015132A1 (priority 2001, published 2007).

Key:
[1] = system: Mouse fibroblast cells (ATCC CRL-10225); experiment: Glucose and lactate metabolic rate of fibroblast cells exposed to toxicants in 24-well plate; conditions: 6 hours; for glucose metabolic rate / lactate metabolic rate: different concentrations; for cell death on exposure: trypan blue exclusion
[2] = system: Mouse fibroblast cells (ATCC CRL-10225); type: cell-based

| Compound | glucose metabolic rate [1] | lactate metabolic rate [1] | cell death on exposure ([1]; concentration 10 mM) | effect on medium acidification rate at low concentrations [2] | effect on medium acidification rate with concentration increasing [2] | cell death on exposure [1] |
| --- | --- | --- | --- | --- | --- | --- |
| [F-].[Na+] [fluoride, sodium fluoride] | inhibited in concentration dependent manner | inhibited in concentration dependent manner | all cells died |  |  |  |
| O=[N+]([O-])c1ccc(O)c([N+](=O)[O-])c1 [2,4-dinitrophenol] | opposite impact | opposite impact |  | stimulate | stimulation effects become weak until inhibition effects are observed | not observed |
